In patent US7501513B2, “Immunosuppressive effects of pteridine derivatives” (4 AZA Bioscience NV, priority 2003, dated 2009):
Like-named read-outs stand apart in the source and are kept apart here. Values belong to the compound of their own block, whether it stands above or below them.

Tests used:
[1] = test system: Peripheral blood mononuclear cells; test: Mixed lymphocyte reaction (MLR) test; assay type: cell-based, human; conditions: 50% suppression of the MLR
Description: (§1) Pteridine derivatives were first dissolved (10 mM) in dimethylsulfoxide (hereinafter referred as DMSO) and further diluted in culture medium before use for the following in vitro experiments. The commercially available culture medium consisted of RPMI-1640+10% foetal calf serum (FCS). Some pteridine derivatives described the previous examples were tested in the following lymphocyte activation tests:
(§2) Peripheral blood mononuclear cells (hereinafter referred as PBMC) were isolated from heparinized peripheral blood by density gradient centrifugation over Lymphoprep (Nycomed, Maorstua, Norway). Allogeneic PBMC or Eppstein-Barr Virus-transformed human B cells [commercially available under the trade name RPMI1788 (ATCC name CCL156)] which strongly express B7-1 and B7-2 antigens were used as stimulator cells after irradiation with 30 Gy. MLR was performed in triplicate wells. After 5 days incubation at 37° C., 1 μCi [^3H]-thymidine was added to each cup. After a further 16 hours incubation, cells were harvested and counted in a β-counter. Inhibition of proliferation by a compound (drug) described in some of the previous examples was counted using the formula:
(§3) [formula] wherein cpm is the thymidine count per minute. The MLR assay is regarded by those skilled in the art as an in vitro analogue of the transplant rejection since it is based on the recognition of allogeneic major histocompatibility antigens on the stimulator leukocytes, by responding lymphocytes. Assays for CD3 and CD 28
Pteridine derivatives were first dissolved (10 mM) in dimethylsulfoxide (hereinafter referred as DMSO) and further diluted in culture medium before use for the following in vitro experiments. The commercially available culture medium consisted of RPMI-1640+10% foetal calf serum (FCS). Some pteridine derivatives described in the previous examples (as indicated in table 3 below) were tested in the following mixed lymphocyte reaction (MLR) assay.
as §2, with “CCL156)]which” for “CCL156)] which”
as §3, with “lymphocytes.” for “lymphocytes. Assays for CD3 and CD 28”

[2] = test system: Highly purified T cells stimulated by anti-CD3 mAb; test: CD3 assay: T-cell proliferation stimulated by immobilized anti-CD3 mAb + PMA (BrdU); assay type: cell-based, human; conditions: 50% reduction in T-cell proliferation, read-out: CD 3 IC50
Description: as §1
(§4) T cells were purified by removing non-T cells. Briefly, monocytes were removed by cold agglutination. The resulting lymphoid cells were further purified by a cell enrichment immunocolumn [Cellect Human T commercially available from Biotex, Edmonton, Alberta, Canada)] by a process of negative selection. More than 95% of the B cells were removed with this procedure. After depletion, the resulting T cell preparation was highly purified, i.e. these cells could not be activated by phytohaemagglutinin (PHA) or rIL-2 alone at concentrations capable of stimulating RBMC prior to deletion.
(§5) Highly purified T cells (10^6/ml) were stimulated by immobilized anti-CD3 or anti-CD28 monoclonal antibodies (hereinafter referred as mAb) in the presence of phorbol myristate acetate (hereinafter referred as PMA). Anti-CD3 mAb (available from CLB, Amsterdam, Netherlands) were fixed on a 96-microwell plates by incubating the wells with 50 μl of mAb solution (1/800 dilution in culture medium). For anti-CD28 mAb (available from CLB, Amsterdam, Netherlands) 50 μl (1/650 dilution in culture medium) was added directly to the wells. Further, a 20 μl PMA (commercially available from Sigma, St. Louis, Mo., USA) solution (final concentration: 0.5 ng/ml) was added. Subsequently, 20 μl of a pteridine derivative described in the previous examples were added by serial dilution in triplicate wells. Finally 100 μl of the T-cell suspension (10^6/ml) was added. After 48-hour incubation at 37° C. in 5% CO2, 20 μl of a bromo-deuridine (hereinafter referred as BrdU) 100 μM solution (commercially available as Cell Proliferation Elisa from Boehringer-Mannheim Belgium) was added to each well. After a further overnight incubation, T-cell proliferation was measured using a calorimetric immuno-assay for qualification of cell proliferation based on the incorporation of BrdU during DNA synthesis. Optical density (hereinafter referred as OD) was measured by a Behring EL311 plate reader at 450 nm (reference wavelength: 690 nm). Inhibition of proliferation by the pteridine derivative (drug) was counted while using the formula: […]

[3] = test system: Highly purified T cells stimulated by anti-CD28 mAb; test: CD28 assay: T-cell proliferation stimulated by anti-CD28 mAb + PMA (BrdU); assay type: cell-based, human; conditions: 50% reduction in T-cell proliferation
Description: as §1, §4, §5

[4] = test system: human TNF-α; test: TNF-α assay: suppression of TNF-α production by LPS-stimulated PBMC (ELISA); assay type: cell-based; conditions: LPS 1 μg/ml, 72 hours
Description: (§6) Peripheral blood mononuclear cells (herein referred as PBMC), in response to stimulation by lipopolysaccharide (LPS), a gram-negative bacterial endotoxin, produce various […], in particular human TNF-α and IL-1 β. Inhibition of the activation of PBMC can therefore be measured by the level of suppression of the production of TNF-α or IL-1 β by PBMC in response to stimulation by LPS.
(§7) Such inhibition measurement was performed as follows: PBMC were isolated from heparinized peripheral blood by density gradient centrifugation over Lymphoprep (commercially available from Nycomed, Norway). LPS was then added to the PMBC suspension in complete medium (10^6 cells/ml) at a final concentration of 1 μg/ml. The pteridine derivative to be tested was added at different concentrations (0.1 μM, 1 μM and 10 μM) and the cells were incubated at 37° C. for 72 hours in 5% CO2. The supernatants were collected, then TNF-α and/or IL-1 β concentrations were measured with respectively an anti-TNF-α antibody or an anti-IL-1 β antibody in a sandwich ELISA (Duo Set ELISA human TNFα, commercially available from R&D Systems, United Kingdom). The calorimetric reading of the ELISA was measured by a Multiskan RC plate reader (commercially available from ThermoLabsystems, Finland) at 450 nm (reference wavelength: 690 nm). Data analysis was performed with Ascent software 2.6. (also from ThermoLabsystems, Finland): a standard curve (recombinant human TNFα) was drawn and the amount (pg/ml) of each sample on the standard curve was determined.
The % suppression of human TNFα production or human IL-1 β by the pteridine derivatives of the invention (drugs) was calculated using the formula: […]
as §6, with “(hereinafter LPS),” for “(LPS),”, “TNF-α.” for “TNF-α and IL-1 β.”, “TNF-α” for “TNF-α or IL-1 β”
as §7, with “TNF-α” for “TNF-α and/or IL-1 β”, “with” for “with respectively”, “anti-TNF-α” for “anti-TNF-α antibody or an anti-IL-1 β”, “TNF-α,” for “TNFα,”, “colorimetric” for “calorimetric”
The % suppression of human TNFα production by the pteridine derivatives of the invention (drugs) was calculated using the formula: […]

IC50 ([1]; Table 1): > 10 µM
SMILES: CCOc1nc(N)nc2ncc(-c3ccc(F)c(F)c3)nc12 [Example 16]
IC50 [2]: 9 µM | IC50 [3]: 4 µM

IC50 ([1]; Homo sapiens, PBMC, Table 1): 10 µM
SMILES: CCOc1nc(N)nc2ncc(-c3ccc(C(F)(F)F)cc3)nc12 [Example 18, 2-amino-6-(p-trifluoromethylphenyl)-4-ethoxy-pteridine]
IC50 ([2]; Homo sapiens): 10 µM | IC50 ([3]; Homo sapiens): 0.8 µM

IC50 ([1]; Homo sapiens, PBMC, Table 1): 10 µM | IC50 ([4]; Homo sapiens, PBMC, Table 2): 6.7 µM
SMILES: Cc1ccc(-c2cnc3nc(N)nc(OC(C)C)c3n2)cc1C [Example 32, 2-amino-6-(3,4-dimethylphenyl)-4-isopropoxypteridine]

IC50 ([1]; Table 3): 1.1 µM | IC50 ([4]; Table 4): 2.5 µM
SMILES: Nc1ccc(-c2cnc3nc(N)nc(N4CCOCC4)c3n2)cc1 [Example 74, 2-amino-morpholino-6-(4-aminophenyl)pteridine]

IC50 ([1]; Homo sapiens, PBMC, Table 3): 3.3 µM | IC50 ([4]; Homo sapiens, PBMC, Table 4): > 10 µM
SMILES: CCS(=O)(=O)Nc1cccc(-c2cnc3nc(N)nc(N4CCOCC4)c3n2)c1 [Example 97, 2-amino-4-morpholino-6-(3-ethylsulfonylaminophenyl)pteridine]

IC50 ([1]; Table 3): 3.9 µM | IC50 ([4]; Table 4): 2.9 µM
SMILES: CC(C)(C)OC(=O)N[C@@H](Cc1ccccc1)C(=O)Nc1cccc(-c2cnc3nc(N)nc(N4CCOCC4)c3n2)c1 [Example 98, 2-amino-4-morpholino-6-[3-Boc-(L)-phenylalanine-aminophenyl]pteridine]

IC50 ([1]; Homo sapiens, PBMC, Table 3): 4.3 µM | IC50 ([4]; Homo sapiens, PBMC, Table 4): 2.1 µM
SMILES: Nc1nc(N2CCOCC2)c2nc(-c3ccc(O)cc3)cnc2n1 [Example 102, 2-amino-4-morpholino-6-(4-hydroxyphenyl)pteridine]

IC50 ([1]; Homo sapiens, PBMC, Table 3): 6.8 µM | IC50 ([4]; Homo sapiens, PBMC, Table 4): > 10 µM
SMILES: CCCOc1ccc(-c2cnc3nc(N)nc(N4CCOCC4)c3n2)cc1 [Example 107, 2-amino-4-morpholino-6-(4-propoxy-phenyl)pteridine]

IC50 ([1]; Table 3): 4.1 µM | IC50 ([4]; Table 4): 7.2 µM
SMILES: COc1ccc(-c2cnc3nc(N)nc(NCc4cccs4)c3n2)cc1OC [Example 116]

IC50 ([1]; Table 3): 0.5 µM | IC50 ([4]; Table 4): 0.2 µM
SMILES: CC[C@@H](C)Nc1nc(N)nc2ncc(-c3ccc(OC)c(OC)c3)nc12 [Example 119]

IC50 ([1]; Table 3): 0.2 µM | IC50 ([4]; Table 4): 0.3 µM
SMILES: CC[C@H](C)Nc1nc(N)nc2ncc(-c3ccc(OC)c(OC)c3)nc12 [Example 120]

Second part, the compound before the results:

SMILES: CCOc1nc(N)nc2ncc(-c3cccc(OC)c3)nc12 [Example 15, 2-amino-6-(m-methoxyphenyl)-4-ethoxy-pteridine]
IC50 ([1]; Homo sapiens, PBMC, Table 1): 8.3 µM | IC50 ([2]; Homo sapiens): 20 µM | IC50 ([3]; Homo sapiens): 7 µM | IC50 ([4]; Homo sapiens, PBMC, Table 2): > 10 µM

SMILES: CCOc1nc(N)nc2ncc(-c3ccsc3)nc12 [Example 20, 2-amino-6-(3-thienyl)-4-ethoxy-pteridine]
IC50 ([2]; Homo sapiens): 15 µM | IC50 ([3]; Homo sapiens): 0.7 µM

SMILES: CCOc1nc(N)nc2ncc(-c3ccc(CC)cc3)nc12 [Example 25, 2-amino-6-(p-ethylphenyl)-4-ethoxy-pteridine]
IC50 ([1]; Homo sapiens, PBMC, Table 1): 8.2 µM | IC50 ([2]; Homo sapiens): 10 µM | IC50 ([3]; Homo sapiens): 10 µM | IC50 ([4]; Homo sapiens, PBMC, Table 2): 8.5 µM

SMILES: CC(=O)Nc1ccc(-c2cnc3nc(N)nc(N4CCOCC4)c3n2)cc1 [Example 72, 2-amino-4-morpholino-6-(4-acetanilide)pteridine]
IC50 ([1]; Table 3): 8.6 µM | IC50 ([4]; Table 4): 8.4 µM

SMILES: CCOc1ccc(-c2cnc3nc(N)nc(N4CCOCC4)c3n2)cc1 [Example 103, 2-amino-4-morpholino-6-(4-ethoxyphenyl)pteridine]
IC50 ([1]; Homo sapiens, PBMC, Table 3): 3.7 µM | IC50 ([4]; Homo sapiens, PBMC, Table 4): > 10 µM

SMILES: COc1ccc(-c2cnc3nc(N)nc(N(CCO)CCO)c3n2)cc1OC [Example 112]
IC50 ([1]; Table 3): 6 µM | IC50 ([4]; Table 4): 3.4 µM

SMILES: COc1ccc(-c2cnc3nc(N)nc(NCCc4ccccc4)c3n2)cc1OC [Example 114]
IC50 ([1]; Table 3): 6 µM | IC50 ([4]; Table 4): 7.1 µM

SMILES: COc1ccc(-c2cnc3nc(N)nc(N4CCC(C)CC4)c3n2)cc1OC [Example 115]
IC50 ([1]; Table 3): 0.8 µM | IC50 ([4]; Table 4): 0.3 µM

SMILES: COc1ccc(-c2cnc3nc(N)nc(N4CCSCC4)c3n2)cc1OC [Example 118]
IC50 ([1]; Table 3): 0.4 µM | IC50 ([4]; Table 4): 0.5 µM
